The structures appear in SMILES notation.

This assay deals with human PRMT5/MEP50 (Homo sapiens (Human), UniProt O14744). In words: PRMT5 chemiluminescent assay. The class given is biochemical. The conditions noted are these: human PRMT5/MEP50 expressed in HEK293 cells; biotinylated histone peptides; Histone H4 monomethyl R3 antibody; chemiluminescent readout. The gist of the method: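 HEK293-expressed PRMT5/MEP50, diluted to 5 ng/µL in assay buffer, reacted 60 min with rotation on plate-bound biotinylated histone peptides. Product was detected with anti-histone H4 R3 monomethyl antibody (60 min), then HRP secondary (30 min) and chemiluminescent substrate. IC50 values came from the chemiluminescence signal.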
Sequence of human PRMT5/MEP50 (O14744 whole entry): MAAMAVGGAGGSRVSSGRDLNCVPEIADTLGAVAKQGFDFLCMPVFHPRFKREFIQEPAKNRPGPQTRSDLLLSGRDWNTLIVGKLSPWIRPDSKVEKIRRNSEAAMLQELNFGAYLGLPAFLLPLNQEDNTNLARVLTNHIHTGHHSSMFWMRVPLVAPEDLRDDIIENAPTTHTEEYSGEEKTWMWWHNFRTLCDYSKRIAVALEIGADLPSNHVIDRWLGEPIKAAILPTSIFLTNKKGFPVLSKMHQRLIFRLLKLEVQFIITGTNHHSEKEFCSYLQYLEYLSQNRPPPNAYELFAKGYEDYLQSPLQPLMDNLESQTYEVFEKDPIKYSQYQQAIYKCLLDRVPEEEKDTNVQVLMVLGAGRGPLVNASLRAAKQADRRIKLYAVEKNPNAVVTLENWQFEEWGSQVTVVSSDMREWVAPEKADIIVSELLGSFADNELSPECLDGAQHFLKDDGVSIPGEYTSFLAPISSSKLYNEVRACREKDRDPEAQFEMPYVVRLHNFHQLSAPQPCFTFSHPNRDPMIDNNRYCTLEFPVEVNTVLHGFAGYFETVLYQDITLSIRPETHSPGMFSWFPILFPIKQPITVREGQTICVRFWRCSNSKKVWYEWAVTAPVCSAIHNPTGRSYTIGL
Sequence of human PRMT5/MEP50 (Q9BQA1 whole entry partner): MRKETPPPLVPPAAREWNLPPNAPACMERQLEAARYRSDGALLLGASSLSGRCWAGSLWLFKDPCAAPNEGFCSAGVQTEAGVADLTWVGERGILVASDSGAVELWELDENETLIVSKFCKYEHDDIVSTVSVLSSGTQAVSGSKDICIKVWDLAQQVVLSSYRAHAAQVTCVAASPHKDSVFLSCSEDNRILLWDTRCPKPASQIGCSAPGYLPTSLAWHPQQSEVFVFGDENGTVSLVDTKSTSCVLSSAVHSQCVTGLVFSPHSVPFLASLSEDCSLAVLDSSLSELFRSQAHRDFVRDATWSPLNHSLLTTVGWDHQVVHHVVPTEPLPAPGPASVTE
Regarding `O=C(NCC(O)CN1CCc2ccccc2C1)N1CCCC(c2ccccc2)C1` (centres unmarked) [Example 1E, N-[2-hydroxy-3-(1,2,3,4-tetrahydroisoquinolin-2-yl)propyl]-3-phenylpiperidine-1-carboxamide], half-maximal inhibition (IC50) required 8 nM.

`O=C(NC[C@H](O)CN1CCc2ccccc2C1)N1CCC(C(=O)N2C3CCC2COC3)CC1` [Example 1AZ, 4-(3-oxa-8-azabicyclo[3.2.1]octane-8-carbonyl)-N-((S)-3-(3,4-dihydroisoquinolin-2(1H)-yl)-2-hydroxypropyl)piperidine-1-carboxamide] showed an IC50 of 159 nM.

Molecule `O=C(NCC(O)CN1CCc2ccsc2C1)N1CCC(c2ccccc2)C1` (centres unmarked) [Example 1Af, N-(3-(4,7-dihydrothieno[2,3-c]pyridin-6(5H)-yl)-2-hydroxypropyl)-3-phenylpyrrolidine-1-carboxamide] showed an IC50 of 749 nM.

Take `O=C(NCC(O)CN1CCc2ccccc2C1)N1CCCN(Cc2ccccc2)CC1` (centres unmarked) [Example 1T, 4-benzyl-N-(3-(3,4-dihydroisoquinolin-2(1H)-yl)-2-hydroxypropyl)-1,4-diazepane-1-carboxamide]: the IC50 is 40 nM.

Molecule `COC(=O)N1CCCN(C(=O)NC[C@@H](O)CN2CCc3ccccc3C2)CC1` [Example 1BC, Methyl (R)-4-((3-(3,4-dihydroisoquinolin-2(1H)-yl)-2-hydroxypropyl)carbamoyl)-1,4-diazepane-1-carboxylate] returned a 50% inhibitory concentration (IC50) of 33100 nM.

As for `O=C(NC[C@H](O)CN1CCc2ccccc2C1)N1CCc2ccccc2C1` [Example 1AL, (S)-N-(3-(3,4-dihydroisoquinolin-2(1H)-yl)-2-hydroxypropyl)-3,4-dihydroisoquinoline-2(1H)-carboxamide], the IC50 is 30 nM.

In turn, `O=C(NCC(O)CN1CCc2ccsc2C1)N1CCCc2ccccc21` (centres unmarked) [Example 1Z, N-(3-(4,7-dihydrothieno[2,3-c]pyridin-6(5H)-yl)-2-hydroxypropyl)-3,4-dihydroquinoline-1(2H)-carboxamide] had an IC50 of 639 nM.

Molecule `O=C(NC[C@H](O)CN1CCc2ccccc2C1)N1CCC[C@H](C2CCOCC2)C1` (single isomer, unassigned) [Example 5G, (R)-N-((S)-3-(3,4-dihydroisoquinolin-2(1H)-yl)-2-hydroxypropyl)-3-(tetrahydro-2H-pyran-4-yl)piperidine-1-carboxamide compound or (S)-N-((S)-3-(3,4-dihydroisoquinolin-2(1H)-yl)-2-hydroxypropyl)-3-(tetrahydro-2H-pyran-4-yl)piperidine-1-carboxamide] returned an IC50 of 394 nM.

For the origin of these results see US11485731B2, “Compounds and methods useful in the treatment of a PRMT5-mediated disorder” (ARGONAUT THERAPEUTICS LIMITED, priority 2017, dated 2022).
